# In patent US20230348401A1, “Inhibitors of Glucose-6-phosphate Dehydrogenase and Uses Thereof” (The Trustees of Princeton University, priority 2020, published 2023):
# Values joined by “and” are separate entries in the source; they are usually repeats but may differ in a detail not shown here. Identical values can stand only once.
# Molecular target: G6PD (Homo sapiens, UniProt P11413)
# Assay: G6PD enzymatic activity by diaphorase-coupled assay
# Conditions: not given
# Chain of G6PD (P11413 28-515): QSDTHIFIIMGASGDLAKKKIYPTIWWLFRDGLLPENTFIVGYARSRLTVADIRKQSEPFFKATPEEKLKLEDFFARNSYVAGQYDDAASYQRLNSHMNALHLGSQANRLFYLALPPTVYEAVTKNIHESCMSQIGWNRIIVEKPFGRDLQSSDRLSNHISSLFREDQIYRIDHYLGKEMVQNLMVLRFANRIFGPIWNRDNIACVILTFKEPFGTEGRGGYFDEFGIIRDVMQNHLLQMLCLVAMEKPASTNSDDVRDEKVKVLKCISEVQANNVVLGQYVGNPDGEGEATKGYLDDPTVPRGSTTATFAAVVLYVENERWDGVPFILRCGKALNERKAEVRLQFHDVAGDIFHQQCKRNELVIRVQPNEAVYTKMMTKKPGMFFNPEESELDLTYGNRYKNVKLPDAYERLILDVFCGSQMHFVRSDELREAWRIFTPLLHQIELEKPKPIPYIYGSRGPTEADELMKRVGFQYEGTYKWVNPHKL
row,Structure (SMILES),IC50
1,CO/N=C1\CCCc2nc(Nc3cccc(C#N)c3)ncc21 [KG-0260-0],> 1000 µM
2,O=C1c2cnc(Nc3cccc(Cl)c3)nc2CCCC1Br (stereo not drawn) [KG-0335-0],< 1 µM
3,N#Cc1cc(Nc2ncc3c(n2)CCCCC3=O)cs1 [KG-0338],< 1 µM
4,Cc1cccc(Nc2ncc3c(n2)CCNC3=O)c1 [KG-0055-0],1 to 1000 µM
5,N#Cc1cc(Nc2ncc3c(n2)CCCCC3=O)cc(OCc2cccnc2)c1 [Compound 0118],< 1 µM
6,N#Cc1cc(Nc2ncc3c(n2)CCCc2cn[nH]c2-3)cs1 [Compound 0067],1 to 1000 µM
7,N#Cc1cc(Nc2ncc3c(n2)CCCC(C(F)(F)F)C3=O)cs1 (stereo not drawn) [KG-0337-0],< 1 µM
8,O=C1CCCCc2nc(Nc3csc(-c4nnn[nH]4)c3)ncc21 [Compound 0033],1 to 1000 µM
9,N#Cc1cc(Nc2ncc3c(n2)CCCCC3=O)cc(OCc2ccc3c(c2)OCO3)c1 [Compound 0075],< 1 µM
10,O=C1CCCCc2nc(Nc3cc(Cl)cc(C(F)(F)F)c3)ncc21 [Compound 0027],1 to 1000 µM
11,N#Cc1cc(Nc2cc3c(cn2)C(=O)CCCC3)cs1 [Compound 0066],1 to 1000 µM
12,COC1CCc2nc(Nc3csc(C#N)c3)ncc2C1=O (stereo not drawn) [KG-0321],< 1 µM
13,N#Cc1cc(Nc2ncc3c(n2)CCCCC3=O)cc(OCc2ccc3ccccc3c2)c1 [Compound 0080],1 to 1000 µM
14,N#CC(C#N)=C1CCCCc2nc(Nc3csc(C#N)c3)ncc21 [Compound 0034],< 1 µM
15,C#CCC1(COc2cc(C#N)cc(Nc3ncc4c(n3)CCCCC4=O)c2)N=N1 [Compound 0095],> 1000 µM
16,N#Cc1cc(Nc2ncc3c(n2)CCCCC3=O)cc(OCc2ccccc2)c1 [Compound 0035],< 1 µM
17,O=C1c2cnc(Nc3cccc(Cl)c3)nc2CCCC1O (stereo not drawn) [KG-0332-0],1 to 1000 µM
18,N#Cc1cc(Nc2ncc3c(n2)CCCC/C3=N\O)cs1 [Compound 0053],> 1000 µM
19,N#Cc1cc(Nc2ncc3c(n2)CCC(Br)C3=O)cs1 (stereo not drawn) [KG-0316],< 1 µM
20,N#Cc1cc(Nc2ncc3c(n2)CCCCC3=O)cc(OCC2CCC2)c1 [Compound 0098],1 to 1000 µM
21,CCC(CC)Oc1cc(C#N)cc(Nc2ncc3c(n2)CCCCC3=O)c1 [Compound 0101],1 to 1000 µM

row,Structure (SMILES),IC50
1,O=C1CCCc2nc(NCc3cccnc3)ncc21 [KG-0162-0],1 to 1000 µM
2,O=C1CCCc2nc(NCc3ccncc3)ncc21 [KG-0163-0],1 to 1000 µM
3,N#Cc1cc(Nc2ncc3c(n2)CCCCC3=O)cc(OCc2ccccc2Cl)c1 [Compound 0047],< 1 µM
4,N#Cc1cc(CS(=O)(=O)C(F)(F)F)cc(Nc2ncc3c(n2)CCCCC3=O)c1 [Compound 0163],1 to 1000 µM
5,N#Cc1cccc(Nc2ncc3c(n2)COCC3=O)c1 [KG-0190-0],1 to 1000 µM
6,N#Cc1cc(Nc2ncc3c(n2)CCCCC3=O)cc(OCC2CC2)c1 [Compound 0097],< 1 µM
7,Cc1cc(Nc2ncc3c(n2)CCCC3=O)no1 [KG-0220-0],1 to 1000 µM
8,N#Cc1cc(Nc2ncc3c(n2)CCCCC3=O)cc(OCc2cccc(CO)c2)c1 [Compound 0083],< 1 µM
9,N#Cc1cc(Nc2ncc3c(n2)CCCCC3=O)c(C(F)(F)F)s1 [KG-0337-0A],1 to 1000 µM
10,CC(C)(C)COc1cc(C#N)cc(Nc2ncc3c(n2)CCCCC3=O)c1 [Compound 0106],> 1000 µM
11,CC1(C)[C@H]2CCC1(C)[C@@H](Oc1cc(C#N)cc(Nc3ncc4c(n3)CCCCC4=O)c1)C2 [Compound 0093],> 1000 µM
12,N#Cc1cc(Nc2ncc3c(n2)CCC(O)C3=O)cs1 (stereo not drawn) [KG-0317],< 1 µM
13,N#Cc1cc(Nc2ncc3c(n2)CCCCC3=O)cc(OCc2c(F)c(F)c(F)c(F)c2F)c1 [Compound 0050],< 1 µM
14,N#Cc1cc(Nc2ncc3c(n2)C2CCC(C2)C3=O)cs1 (stereo not drawn) [Compound 0040],1 to 1000 µM
15,O=C1CCCc2nc(Nc3ncco3)ncc21 [KG-0213-0],> 1000 µM
16,N#C/C=C1/CCCCc2nc(Nc3csc(C#N)c3)ncc21 [Compound 0056],1 to 1000 µM
17,Cc1cccc(Nc2ccc3c(c2)CCNC3=O)c1 [KG-0057],> 1000 µM
18,COCCOc1cc(C#N)cc(Nc2ncc3c(n2)CCCCC3=O)c1 [Compound 0125],< 1 µM
19,N#Cc1cc(Nc2ncc3c(n2)CCC(C(F)(F)F)C3=O)cs1 (stereo not drawn) [KG-0318],< 1 µM
20,CC1(C)OB(c2cccc(Nc3ncc4c(n3)CCCCC4=O)c2)OC1(C)C [Compound 0023],1 to 1000 µM

# The remaining lines, values ahead:
row,IC50,Structure (SMILES)
1,< 1 µM,N#Cc1cc(Nc2ncc3c(n2)CCCC3=O)cs1 [KG-0254-0A]
2,< 1 µM,Cc1ccc(Nc2ncc3c(n2)CCCCC3=O)cc1C#N [Compound 0019]
3,< 1 µM,Cc1ccc(COc2cc(C#N)cc(Nc3ncc4c(n3)CCCCC4=O)c2)cc1 [Compound 0074]
4,< 1 µM,CCCOc1cc(C#N)cc(Nc2ncc3c(n2)CCCCC3=O)c1 [Compound 0060]
5,< 1 µM,N#Cc1cc(Nc2ncc3c(n2)CCCCC3=O)c[nH]1 [Compound 0051]
6,< 1 µM,CCOc1cc(C#N)cc(Nc2ncc3c(n2)CCCCC3=O)c1 [Compound 0059]
7,1 to 1000 µM,N#Cc1cc(Nc2ncc3c(n2)CCCCC3=O)cn1Cc1ccccc1 [Compound 0058]
8,< 1 µM,N#Cc1cccc(Nc2ncc3c(n2)CCCCC3=O)c1F [Compound 0087]
9,> 1000 µM,COC(=O)c1ccc(COc2cc(C#N)cc(Nc3ncc4c(n3)CCCCC4=O)c2)cc1 [Compound 0096]
10,< 1 µM,N#Cc1cc(Nc2ncc3c(n2)CCCCC3=O)cc(OCc2ccc(CO)cc2)c1 [Compound 0082]
11,1 to 1000 µM,CCCCOc1cc(C#N)cc(Nc2ncc3c(n2)CCCCC3=O)c1 [Compound 0089]
12,1 to 1000 µM,N#Cc1cc(Nc2ncc3c(n2)CCCCC3=O)cc(OCc2ccc(Cl)cc2)c1 [Compound 0045]
13,1 to 1000 µM,CCCCc1cc(C#N)cc(Nc2ncc3c(n2)CCCCC3=O)c1 [Compound 0162]
14,1 to 1000 µM,CCCc1cc(C#N)cc(Nc2ncc3c(n2)CCCCC3=O)c1 [Compound 0161]
15,< 1 µM,O=C1CCCCc2nc(Nc3ccc(F)c(Cl)c3)ncc21 [Compound 0017]
16,1 to 1000 µM,N#Cc1ccc(F)c(Nc2ncc3c(n2)CCCCC3=O)c1 [Compound 0088]
17,< 1 µM,COc1ccc(COc2cc(C#N)cc(Nc3ncc4c(n3)CCCCC4=O)c2)cc1 [Compound 0048]

# Same assay, conditions: Normalized in vitro IC50, Table 1; diaphorase-coupled biochemical assay, normalization to an intraplate control
row,Structure (SMILES),IC50
1,O=C1CCCc2nc(Nc3cccc(-c4nnn[nH]4)c3)ncc21 [KG-0241-0],1 to 1000 µM
2,N#Cc1cccc(Nc2ncc3c(n2)CCC(Br)C3=O)c1 (stereo not drawn) [KG-0206-0],< 1 µM
3,O=C(Nc1ncc2c(n1)CCCC2=O)c1ccccc1 [KG-0258-0],> 1000 µM
4,Cc1cccc(Nc2ncc3c(n2)CCCC3=O)c1C [KG-0060-0],> 1000 µM
5,O=C1CCCc2nc(NCc3ccccc3)ncc21 [KG-0164-0],1 to 1000 µM
6,N#Cc1cc(Cl)cc(Nc2ncc3c(n2)CCCC3=O)c1 [KG-0265-0],< 1 µM
7,CC#Cc1cccc(Nc2ncc3c(n2)CCCC3=O)c1 [KG-0204-0],1 to 1000 µM
8,CCNC(=O)Nc1cccc(Nc2ncc3c(n2)CCCC3=O)c1 [KG-0283-0],1 to 1000 µM
9,COc1cc(C#N)cc(Nc2ncc3c(n2)CCCC3=O)c1 [KG-0255-0],< 1 µM
10,O=C1CCCc2nc(Nc3ccc4scnc4c3)ncc21 [KG-0227-0],1 to 1000 µM
11,CN(c1cccc(C#N)c1)c1ncc2c(n1)CCCC2=O [KG-0176],> 1000 µM
12,Cc1cccc(Nc2ncc3c(n2)CCC3=O)c1 [KG-0138-0],1 to 1000 µM
13,CC(Nc1ncc2c(n1)CCCC2=O)c1ccccc1 (stereo not drawn) [KG-0165-0],1 to 1000 µM and > 1000 µM
14,O=C(O)c1cccc(Nc2ncc3c(n2)CCCC3=O)c1 [KG-0237-0],> 1000 µM
15,O=C1CCCc2nc(Nc3ccc4cn[nH]c4c3)ncc21 [KG-0229-0],1 to 1000 µM
16,NC(=O)c1cccc(Nc2ncc3c(n2)CCCC3=O)c1 [KG-0238-0],1 to 1000 µM
17,O=C1CCCc2nc(Nc3cccc(C4(O)COC4)c3)ncc21 [KG-0242-0],1 to 1000 µM

# More lines, now with the values ahead:
row,IC50,Structure (SMILES)
1,1 to 1000 µM,O=C1CCCc2nc(Nc3ccccc3)ncc21 [KG-0187-0]
2,1 to 1000 µM,O=C1CCCc2nc(Nc3cccc(CO)c3)ncc21 [KG-0240-0]
3,< 1 µM,O=C1CCCc2nc(Nc3cccc(Cl)c3)ncc21 [KG-0065-0]
4,1 to 1000 µM,O=C1CCCc2nc(Nc3cccc(Br)c3)ncc21 [KG-0167-0A]
5,< 1 µM,N#Cc1cccc(Nc2ncc3c(n2)CCCC3=O)c1 [KG-0062-0]
6,1 to 1000 µM,Cc1ccc(Nc2ncc3c(n2)CCCC3=O)cc1C [KG-0188-0]
7,1 to 1000 µM,CCOc1cccc(Nc2ncc3c(n2)CCCC3=O)c1 [KG-0239-0]
8,1 to 1000 µM,COc1cccc(Nc2ncc3c(n2)CCCC3=O)c1 [KG-0185-0]
9,< 1 µM,N#Cc1cccc(Nc2ncc3c(n2)CCCCC3=O)c1 [KG-0184-0A]
10,1 to 1000 µM,O=C1CCCc2nc(Nc3ccc4[nH]ccc4c3)ncc21 [KG-0168-0]
11,< 1 µM,O=C1CCCCc2nc(Nc3cccc(F)c3)ncc21 [KG-0339]

# Same assay, conditions: Normalized in vitro IC50, Table 1A; diaphorase-coupled biochemical assay, normalization to an intraplate control
row,Structure (SMILES),IC50
1,COc1ccc(Oc2cc(C#N)cc(Nc3ncc4c(n3)CCCCC4=O)c2)cc1 [Compound 0086],1 to 1000 µM
2,N#Cc1cc(Nc2ncc3c(n2)CCCCC3=O)cs1 [Compound 0065],< 1 µM
3,O=C(c1ccccc1)c1cc(Cl)cc(Nc2ncc3c(n2)CCCCC3=O)c1 [Compound 0042],1 to 1000 µM

# More lines, now with the values ahead:
row,IC50,Structure (SMILES)
1,1 to 1000 µM,O=C1CCCCc2nc(Nc3ccc([N+](=O)[O-])cc3)ncc21 [Compound 0011]
2,1 to 1000 µM,Cc1ccc(Nc2ncc3c(n2)CCCCC3=O)cc1 [Compound 0005]
3,1 to 1000 µM,CCc1ccc(Nc2ncc3c(n2)CCCCC3=O)cc1 [Compound 0006]
4,1 to 1000 µM,O=C1CCCCc2nc(Nc3ccc(C(F)(F)F)cc3)ncc21 [Compound 0010]
5,1 to 1000 µM,O=C1CCCCc2nc(Nc3ccc(B(O)O)cc3)ncc21 [Compound 0032]
6,1 to 1000 µM,NS(=O)(=O)c1ccc(Nc2ncc3c(n2)CCCCC3=O)cc1 [Compound 0044]
7,1 to 1000 µM,O=C1CCCCc2nc(Nc3ccccc3Cl)ncc21 [Compound 0016]
8,1 to 1000 µM,O=C1CCCCc2nc(Nc3ccc(Br)cc3)ncc21 [Compound 0003]
9,< 1 µM,O=C1CCCCc2nc(Nc3cccc(Cl)c3)ncc21 [Compound 0028]
10,1 to 1000 µM,N#CCc1ccc(Nc2ncc3c(n2)CCCCC3=O)cc1 [Compound 0026]
